Source: patent publication US6688468B2, “Pharmaceutical kit for oxygen-sensitive drugs” (Pfizer Inc., priority 2001, dated 2004)

Assay: 18-week stability of Compound I tablets packaged in 60 cc HDPE bottles with HIS; degradation products by HPLC
Type: physicochemical
Details: Initial bulk, 0 weeks
Procedure: In an initial evaluation of oxygen absorbers, the bottles were sealed with heat induction seals (HIS). The following samples were prepared by placing the following materials in a round HDPE bottle (60 cc capacity) and sealing with a heat-induction seal:
Tablets were stored eighteen weeks under three different conditions: (1) 5° C./75% relative humidity (RH); (2) 40° C./75% RH; and (3) 50° C./20% RH. Air in the bottles was sampled using a gas tight syringe equipped with a septum seal as the foil was punctured. The sampled air was analyzed using a Mocon™ headspace analyzer (PAL Model 450 available from Mocon™ Inc., Minneapolis, Minn.). Each tablet was dissolved in 250 ml of a solution prepared by dissolving 21.6 g of octane sulfonic acid and 6.8 g of potassium phosphate in 1.0 liters of purified water and adjusting the pH to 3 with phosphoric acid followed by the addition of 818 mL of acetonitrile. Degradation products were identified by high pressure liquid chromatography (HPLC) (Waters sym C8 column, 15 cm×3.9 mm, nylon acrodisc filter, HPLC HP 1100 series, 20 μl injection volume, flow of 1 mL/min). The degradation products were compared against three known standards (Compounds I-1A′, I-1A″ and I-1B).

I-1A′: 0.000 Wt %
I-1A″: 0.300 Wt %
I-1B: 0.027 Wt %
Total: 0.37%
Unknown (first Unknown column): 0.01 Area %
Unknown (second Unknown column): 0.03 Area %
Compound: COc1ccc(C(C)C)cc1CN[C@@H]1C2CCN(CC2)[C@@H]1C(c1ccccc1)c1ccccc1 [Compound I]
